Results: ChEMBL document CHEMBL1201862, “PubChem BioAssay data set” (2004)
Where “and” joins values, the source holds several entries; their conditions need not be identical. Identical values can stand only once.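 Five concentrations, 48 hours, 96-well plates. GI50: concentration for 50% inhibition of growth.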 Calls of active or inactive are those of the source. Rule as the data show it: active = GI50 up to about 1.1 µM and inactive = higher.

Assays:
Assay in all cases: NCI anticancer screen, dose series, 48 h
NCI-H226 = system: NCI-H226
SN12C = system: SN12C
RXF 393 = system: RXF 393
HOP-18 = system: HOP-18
DLD-1 = system: DLD-1
KM12 = system: KM12
T47D = system: T47D
786-0 = system: 786-0
SF-295 = system: SF-295
SNB-75 = system: SNB-75
SR = system: SR
LOX IMVI = system: LOX IMVI
MDA-MB-231 = system: MDA-MB-231
A498 = system: A498
HL-60 = system: HL-60
DMS-273 = system: DMS-273
NCI/ADR-RES = system: NCI/ADR-RES
COLO 205 = system: COLO 205
DU-145 = system: DU-145
MOLT-4 = system: MOLT-4
PC-3 = system: PC-3
Hs-578T = system: Hs-578T
NCI-H460 = system: NCI-H460
LXFL 529 = system: LXFL 529
MDA-N = system: MDA-N
M19-MEL = system: M19-MEL
SNB-19 = system: SNB-19
HT-29 = system: HT-29
MCF7 = system: MCF7
MDA-MB-435 = system: MDA-MB-435
SNB-78 = system: SNB-78
ACHN = system: ACHN
SF-539 = system: SF-539
SW-620 = system: SW-620
UACC-257 = system: UACC-257
UO-31 = system: UO-31
BT-549 = system: BT-549
KM-20L2 = system: KM-20L2
SK-MEL-28 = system: SK-MEL-28
XF498 = system: XF498
Malme-3M = system: Malme-3M
HOP-92 = system: HOP-92
CCRF-CEM = system: CCRF-CEM
SF-268 = system: SF-268
HOP-62 = system: HOP-62
K562 = system: K562
HCT-15 = system: HCT-15
U-251 = system: U-251
RPMI-8226 = system: RPMI-8226
SK-OV-3 = system: SK-OV-3
SK-MEL-2 = system: SK-MEL-2
OVCAR-3 = system: OVCAR-3
EKVX = system: EKVX
HCC 2998 = system: HCC 2998
TK-10 = system: TK-10
SK-MEL-5 = system: SK-MEL-5
IGROV-1 = system: IGROV-1
OVCAR-5 = system: OVCAR-5
A549 = system: A549
OVCAR-8 = system: OVCAR-8
HCT-116 = system: HCT-116
OVCAR-4 = system: OVCAR-4
CAKI-1 = system: CAKI-1
NCI-H522 = system: NCI-H522
NCI-H23 = system: NCI-H23
DMS-114 = system: DMS-114
M14 = system: M14
UACC-62 = system: UACC-62

## COc1cc2c(cc1OC)[C@@H](Nc1ccc(C#N)cc1)C1COC(=O)[C@@H]1C2c1cc(OC)c(O)c(OC)c1 (stereo partly specified)
NCI-H226
  GI50: 0.01 µM (active)
SN12C
  GI50: 0.192 µM (active)
RXF 393
  GI50: 2.09 µM (inactive)
HOP-18
  GI50: 0.805 µM (active)
DLD-1
  GI50: 2.37 µM (inactive)
KM12
  GI50: 1.59 µM (inactive)
T47D
  GI50: 0.167 µM (active)
786-0
  GI50: 0.196 µM (active)
SF-295
  GI50: 0.108 µM (active)
SNB-75
  GI50: 0.328 µM (active)
SR
  GI50: < 0.00975 µM (active)
LOX IMVI
  GI50: 0.214 µM (active)
MDA-MB-231
  GI50: 2.36 µM (inactive)
A498
  GI50: 0.042 µM (active)
HL-60
  GI50: < 0.00975 µM (active)
DMS-273
  GI50: 0.0403 µM (active)
NCI/ADR-RES
  GI50: 40.2 µM (inactive)
COLO 205
  GI50: 2.13 µM (inactive)
DU-145
  GI50: 0.149 µM (active)
MOLT-4
  GI50: < 0.00975 µM (active)
PC-3
  GI50: > 100 µM (inactive)
Hs-578T
  GI50: 1.55 µM (inactive)
NCI-H460
  GI50: < 0.00975 µM (active)
LXFL 529
  GI50: 22.4 µM (inactive)
MDA-N
  GI50: 3.18 µM (inactive)
M19-MEL
  GI50: 2.39 µM (inactive)
SNB-19
  GI50: 0.344 µM (active)
HT-29
  GI50: 1.87 µM (inactive)
MCF7
  GI50: 0.181 µM (active)
MDA-MB-435
  GI50: 6.73 µM (inactive)
SNB-78
  GI50: 5.79 µM (inactive)
ACHN
  GI50: 0.0279 µM (active)
SF-539
  GI50: 0.158 µM (active)
SW-620
  GI50: 0.948 µM (active)
UACC-257
  GI50: 28.3 µM (inactive)
UO-31
  GI50: 1.75 µM (inactive)
BT-549
  GI50: 1.41 µM (inactive)
KM-20L2
  GI50: 3.12 µM (inactive)

## CC(=O)c1c(O)c(C)c(O)c2c1OC1=CC(=O)C(C(C)=O)C(=O)C12C (stereo unspecified)
SK-MEL-28
  GI50: 14.3 µM (inactive) and 17.1 µM (inactive)
XF498
  GI50: 555 nM (active) and 422 nM (active)
Malme-3M
  GI50: 13.1 µM (inactive) and 23.7 µM (inactive)

## CN(O)C(=O)SCC(NC(=O)CCC(N)C(=O)O)C(=O)NCC(=O)O (stereo unspecified)
HOP-92
  GI50: 294 µM (inactive)
RXF 393
  GI50: 518 µM (inactive)
HOP-18
  GI50: 619 µM (inactive)
KM12
  GI50: 1050 µM (inactive)
CCRF-CEM
  GI50: 1.67 µM (inactive)
SNB-75
  GI50: 618 µM (inactive)
SF-268
  GI50: 1630 µM (inactive)
HOP-62
  GI50: 173 µM (inactive)
K562
  GI50: 305 µM (inactive)
HCT-15
  GI50: 24.3 µM
LOX IMVI
  GI50: 1.46 µM (inactive)
U-251
  GI50: 41.7 µM (inactive)
HL-60
  GI50: 318 µM (inactive)
DMS-273
  GI50: 1.52 µM (inactive)
MOLT-4
  GI50: 1100 µM (inactive)
NCI-H460
  GI50: 783 µM (inactive)
RPMI-8226
  GI50: 964 µM (inactive)
HT-29
  GI50: 1.31 µM (inactive)
SK-OV-3
  GI50: 294 µM (inactive)
SK-MEL-2
  GI50: 446 µM (inactive)
SW-620
  GI50: 1760 µM (inactive)

## COc1cc(C2c3cc4c(cc3[C@@H](NCCCN3CCCC3=O)C3COC(=O)[C@H]23)OCO4)cc(OC)c1O (stereo partly specified)
OVCAR-3
  GI50: 45.9 µM (inactive)
RXF 393
  GI50: 6.84 µM (inactive)
HOP-18
  GI50: 28.7 µM (inactive)
SK-MEL-28
  GI50: 15.4 µM (inactive)
KM12
  GI50: 21 µM (inactive)
EKVX
  GI50: > 100 µM (inactive)
HCC 2998
  GI50: 19.1 µM (inactive)
SNB-75
  GI50: 1.67 µM (inactive)
COLO 205
  GI50: 7.76 µM (inactive)
TK-10
  GI50: 30.3 µM (inactive)
ACHN
  GI50: 3.41 µM (inactive)
SK-OV-3
  GI50: 4.29 µM (inactive)
SK-MEL-2
  GI50: 36.2 µM (inactive)

## C=C1CC(c2ccc(O)c(OC)c2)Oc2c(OC)cccc21 (stereo unspecified)
NCI-H226
  GI50: > 100 µM (inactive)
SN12C
  GI50: 34.4 µM (inactive)
OVCAR-3
  GI50: 33.9 µM (inactive)
HOP-92
  GI50: 14.4 µM (inactive)
HOP-18
  GI50: > 100 µM (inactive)
DLD-1
  GI50: 37 µM (inactive)
SK-MEL-28
  GI50: 43.5 µM (inactive)
KM12
  GI50: 33.7 µM (inactive)
CCRF-CEM
  GI50: 23.8 µM (inactive)
786-0
  GI50: 58.9 µM (inactive)
SK-MEL-5
  GI50: 35.7 µM (inactive)
SF-295
  GI50: 80.5 µM (inactive)
EKVX
  GI50: 40.6 µM (inactive)
IGROV-1
  GI50: 36 µM (inactive)
HCC 2998
  GI50: > 100 µM (inactive)
OVCAR-5
  GI50: 65.5 µM (inactive)
A549
  GI50: 33.7 µM (inactive)
SNB-75
  GI50: 39.2 µM (inactive)
SF-268
  GI50: 33 µM (inactive)
SR
  GI50: 19.7 µM (inactive)
HOP-62
  GI50: 85.3 µM (inactive)
K562
  GI50: 19.7 µM (inactive)
HCT-15
  GI50: 34 µM
OVCAR-8
  GI50: 31.1 µM (inactive)
U-251
  GI50: 30.7 µM (inactive)
HL-60
  GI50: 13 µM (inactive)
DMS-273
  GI50: 18.3 µM (inactive)
COLO 205
  GI50: > 100 µM (inactive)
HCT-116
  GI50: 31.2 µM (inactive)
MOLT-4
  GI50: 25.1 µM (inactive)
TK-10
  GI50: 99.3 µM (inactive)
NCI-H460
  GI50: 35.1 µM (inactive)
LXFL 529
  GI50: 26.2 µM (inactive)
OVCAR-4
  GI50: 54 µM (inactive)
CAKI-1
  GI50: 34.8 µM (inactive)
M19-MEL
  GI50: 48 µM (inactive)
SNB-19
  GI50: 44.9 µM (inactive)
HT-29
  GI50: 55 µM (inactive)
NCI-H522
  GI50: 10.7 µM (inactive)
SNB-78
  GI50: 33.2 µM (inactive)
ACHN
  GI50: 47.4 µM (inactive)
NCI-H23
  GI50: 32.9 µM (inactive)
DMS-114
  GI50: 20.4 µM (inactive)
SF-539
  GI50: 21.3 µM (inactive)
SK-OV-3
  GI50: > 100 µM (inactive)
M14
  GI50: 34 µM (inactive)
SW-620
  GI50: 34 µM (inactive)
UACC-257
  GI50: 39.3 µM (inactive)
UO-31
  GI50: 60.3 µM (inactive)
UACC-62
  GI50: 35.4 µM (inactive)
KM-20L2
  GI50: > 100 µM (inactive)
